Assays:
[1] = Photocatalytic oxidation of NADH under blue light; assay type: biochemical; conditions: blue light 465 nm, 4.8 mW cm^–2; NADH 100 µM, complex 5 µM
Experimental: Photostability is essential for PDT agents, as photobleaching can compromise their effectiveness. […] Control experiments in the absence of Ir(III) complexes (Figure S24) or light (Figure S25) corroborated the photocatalytic character of this transformation. […] Additionally, singlet oxygen (^1O2) is the primary cytotoxic species in Type II PDT. , The ability of complexes Ir3–Ir5 and Ir10 to generate singlet oxygen was evaluated by measuring the decrease in […] (DPBF) absorbance at 411 nm under blue light irradiation (Figure S26). […] This confirmed the production of hydroxyl radicals, particularly with complexes Ir3 and Ir10, after 8 min of irradiation (Figure S29).
1. Photocatalytic properties of complexes Ir1−Ir10 in cell-free media.
1.1. Photooxidation of NADH.
The ability of the complexes to photocatalyse the oxidation of NADH was evaluated by recording the absorption spectra of NADH (100 µM) in the presence of complex (5 µM) in PBS (5% DMF) upon blue light irradiation (EXPO-Panels from Luzchem (Canadá)) (465 nm, 5.0 […]
1.2. Quantum yields for the generation of 1O2. […]
Where ΦΔR is the reference quantum yield, mR and mS are the slopes of the reference and sample, respectively, and AR and AS are the absorbance of the reference and the sample at the […]

[2] = system: U87MG-RFP spheroids implanted into cerebral organoids; assay: Glioblastoma intergrowth/spreading area in cerebral organoid-U87MG-RFP spheroid fusion system; assay type: cell-based, human; conditions: for glioblastoma spreading area, Δ 0h-120h, not irradiated: TMZ 100 μM or Ir4 2 μM for 3 h, no blue light
Experimental: In this study, U87MG-RFP glioblastoma spheroids were preformed over 72 h, implanted into cerebral organoid tissue, and coembedded in Matrigel. […] Samples designated for irradiation were exposed to blue laser light (405 nm, 60 s, 1 mW) and subsequently cultured in drug-free medium for 120 h. Z-stacking confocal imaging and ImageJ analysis quantified the area of glioblastoma spreading (Figure , panels III and IV).
An implant fusion model was established to monitor the distribution of Ir4 within the tumor, represented by the implanted tumorspheres generated from U87MG, and healthy tissue, represented by the hiPSC-derived cerebral organoid. Before the implantation procedure, spheroids derived from U87MG glioblastoma were cultured for 72 h under 3D forming conditions using ULA plates (96-well U-shaped plate, Corning) in DMEM-F12 supplemented with 2% B27, epidermal growth factor (EGF) at 20 ng mL^–1, fibroblast growth factor 2 (FGF2) at 10 ng mL^–1, and BSA (0.15%). Cerebral organoids were generated through a four-step directed differentiation process from human induced pluripotent stem cells (hiPSCs, Gibco). The hiPSCs were cultured on Geltrex matrix (hESC-Qualified, Reduced Growth Factor Basement Membrane Matrix; Gibco) in StemFlex basal medium (DMEM/F12, Ham, 1:1) fully supplemented with StemFlex supplement (Gibco). The preformation of cerebral organoids, involving the formation of embryoid bodies (EBs), was maintained in U-shape ultralow attachment 96-well plates (ULA, Corning) with 9000 hiPSCs per well in fully supplemented Stemdiff Cerebral organoid medium and 10 μM of the rock inhibitor Y27632. The EBs were cultured for 4 days to establish round-shaped EBs with a diameter of approximately 400 μm. Subsequently, 2 EBs per well were transferred to 24-well ULA plates, and differentiation into neural ectoderm was induced for an additional 2 days using the Stemdiff Cerebral Organoid Kit (StemCell Technologies, CA). Following this, early organoids were embedded in the Matrigel matrix (suitable for organoid culture, Corning) and directed toward further differentiation into neuroectoderm. After the initial differentiation phase, early organoids were monitored for the development of optically clear neuroectoderm (characterized by an optically bright, translucent surface) and the formation of large buds of translucent ectoderm that were not radially organized. Postembedding, the organoids were cultured on 6-well ULA plates under continuous orbital shaker agitation (50 rpm). […] The samples were then transferred to confocal Petri dishes containing drug-free cerebral maturation medium and analyzed using a confocal microscope (Leica CM SP5, Leica, Germany). […]

Cc1ccc(-c2cc3[n+]4c(c2)-c2cccc[n+]2[Ir-3]42([Cl])([c]4cc5ccccc5cc4-c4n(Cc5ccc(C(F)(F)F)cc5)c5ccccc5[n+]42)[n+]2ccccc2-3)cc1.F[P-](F)(F)(F)(F)F [Ir3]
Turnover Frequency (TOF) of NADH photo-oxidation [1]: about 110 h^–1

CCCCn1c2[n+](c3cc(C(=O)OC)ccc31)[Ir-3]13([Cl])([c]4ccccc4-2)[n+]2ccccc2-c2cc(-c4ccc(C)cc4)cc([n+]21)-c1cccc[n+]13.F[P-](F)(F)(F)(F)F [Ir4]
glioblastoma spreading area, Δ 0h-120h, irradiated ([2]; Ir4 2 μM 3 h, 405 nm 60 s 1 mW, 120 h drug-free): 0.6 fold
glioblastoma spreading area, Δ 0h-120h, not irradiated ([2]; 120 h drug-free): 2.1 fold
spreading area relative to TMZ ([2]; nonirradiated, Ir4 concentration 50 times lower than TMZ): four times smaller

Cn1nnc2c(C(N)=O)ncn2c1=O [Temozolomide, reference compound]
glioblastoma spreading area, Δ 0h-120h, not irradiated ([2]; 120 h drug-free): 8.7 fold
